Assay results: article PMC5526551, “New hydrazonoindolin-2-ones: Synthesis, exploration of the possible anti-proliferative mechanism of action and encapsulation into PLGA microspheres” (PLoS ONE, 2017)
“Also recorded” adds a separate entry of the source. Read-outs that look alike come from different tables or passages of the source.

Key:
[1] = test system: phosphorylated tyrosine (p-Tyr) in A549 cells; experiment: Total cellular tyrosine phosphorylation after serum stimulation (immunofluorescent imaging); assay type: cell-based, human; conditions: for Change in p-Tyr levels: A549, serum stimulated; for IC50: A549, 10 min 10% fetal bovine serum, apparent IC50 of an increase for 7e, of a decrease for sunitinib, read-out: IC50 for change in total tyrosine phosphorylation (p-Tyr) levels
Procedure: Furthermore, compound 7e was analyzed for its effect on total cellular levels of phosphorylated tyrosine (p-Tyr) residues in human cancer cells. These studies were carried out using cells derived from lung adenocarcinoma (A549) and immunofluorescent imaging. The ability of the test compound 7e to affect acute serum stimulation of tyrosine phosphorylation was tested over a range of concentrations from less than 100 nM to 50 μM.
Cells were stimulated for 10 min with 10% fetal bovine serum. Phosphotyrosine levels were determined by indirect immunofluorescence followed by automated image acquisition and analysis.

[2] = test system: IEC-6, MCF-10A, Swiss 3t3 versus A-549; experiment: Tumor cell selectivity, non-tumor cell lines versus NSCLC cells; assay type: cell-based; conditions: for Mean tumor selectivity: mean IC50 in non-tumor cell lines versus NSCLC cells
Procedure: (§1) This assessment of the growth inhibitory activity of the compounds was tested in quadruplicate at a maximum concentration of 25 μM, followed by 10 serially diluted concentrations.
As indicated in Fig 7 and Table 4, compound 7e inhibited growth in both normal and tumor cell lines >50%.

A549 [3] = experiment: Cell cycle effects and total cell number (DAPI imaging); assay type: cell-based, human; conditions: for Cell cycle effects: A549; for IC50: Homo sapiens
Procedure: Compound 7e was analyzed for effects on various aspects of cell cycle progression in human cancer cells. These studies were carried out using cells derived from lung adenocarcinoma (A549). This follow-up assessment of activity tested compounds used immunofluorescent imaging of phosphorylated Rb protein and the total DNA content of each cell to determine the cell cycle phase. The ability of the test compounds to affect the cell cycle and Rb phosphorylation was tested over a range of concentrations from less than 100 nM to 50 μM.
Fig 5 Dose-dependent changes in cell cycle. Distribution of cells within the cell cycle as well as total cell numbers were quantitated by fluorescent staining of nuclear DNA with DAPI. Phosphorylated Rb protein was detected by indirect immunofluorescence followed by automated image acquisition and analysis. […] All IC50 values are given under one unlabelled substance, with the y-axis title of each plot written in front as the measure.
A549 cells were harvested from a 90% confluent 10 cm dish and diluted in growth medium. An appropriate concentration of cells were prepared to add 5,000 cells in a volume of 100 µL per well in tissue culture treated PerkinElmer optical bottom ViewPlate microplates, then incubated overnight at 37°C. The following day, compound 7e and the positive control, sunitinib, were diluted in DMSO to concentrations 1000-fold above the maximum tested concentration.
Concentrated dosing solutions of twice the final concentration were prepared by dilution of the DMSO stocks 1:500 in growth media. Three-fold dilutions of each dosing medium were then prepared in medium containing 0.2% DMSO to maintain a constant concentration of vehicle throughout the concentration range of each compound. Each of these was added in equal volume (100 µL) to each well on the assay plate, along with the vehicle control. One plate of cells was incubated with the compounds for a further 24 h, and a separate plate was incubated with the compounds for 48 h.
DAPI (1 µg/mL) fluorescent dye was incubated with fixed cells to quantitate double stranded DNA within each cell nucleus to determine cell cycle distribution. DNA content in each cell was determined by total DAPI fluorescent intensity by high throughput image acquisition and analysis. Fluorescent intensities were plotted on histograms with threshold intensity values assigned to each cell cycle classification using the MetaXpress cell cycle analysis program. Results from each treatment were reported as average cell number in each of nine fields, as well as the percentage of cells within each phase of the cell cycle. Each of these parameters was analyzed using GraphPad Prism, and, where appropriate, IC50 values have been reported.

A549 [4] = experiment: Growth inhibition in NSCLC comparison line (selectivity and multidrug resistance studies); assay type: cell-based, human; conditions: maximum 25 μM, read-out: IC50 NSCLC A-549 (sensitive)
Procedure: as §1
Compound 7e was analyzed for cancer cell growth inhibitory activity in a sensitive NSCLC cell line (A549) and a multidrug resistant lung cancer cell line (NCI-H69AR) which expresses the ABCC1 efflux pump protein. This assessment of activity tested compounds in quadruplicate at a maximum concentration of 25 μM, followed by 10 serially diluted concentrations.
A549, IEC-6, MCF-10A and 3t3 cells were harvested from 90-95% confluent cultures in 10 cm dishes, and diluted in growth media recommended by the suppliers as follows: A549 cells were cultured in RPMI-1640 medium supplemented with 5% fetal bovine serum (FBS). IEC-6 cells were obtained from ATCC and cultured in Dulbecco’s modified Eagle’s medium (DMEM) supplemented with 10% FBS and 0.1 unit/mL recombinant insulin. Swiss 3t3 cells were obtained from ATCC and cultured in DMEM supplemented with 10% FBS. MCF-10Acells were obtained from ATCC and cultured in a mixture DMEM and F12 media supplemented with 5% fetal bovine serum (FBS), 20 ng/mL recombinant epidermal growth factor, 10 µg/mL insulin, 0.5 µg/mL hydrocortisone and 100 ng/mL cholera toxin. An appropriate concentration of cells was prepared to add 1,250 cells in a volume of 25 µL per well in tissue culture treated BD 384-well microplates, then incubated overnight at 37 °C.
Compound 7e and the positive control, sunitinib, were diluted to a concentration of […] in DMSO. Concentrated dosing solutions (double the final concentration) were prepared by dilution of the DMSO stocks 1:500 in growth medium. Two-fold serial dilutions were then prepared in medium containing 0.2% DMSO to maintain a constant concentration of vehicle throughout the concentration range of the compound. Each of these was added in equal volume (25 µL) to four wells on each cell assay plate, along with vehicle control. The highest concentration for serial dilutions of the positive control sunitinib was prepared exactly as the experimental compounds. […]
At the end of the treatment period, assay plates were allowed to cool to RT for 10 min prior to addition of 25 µL per well Promega CellTiterGlo reagent, followed by an additional 10 min incubation at RT. The resulting luminescence was quantitated using a Molecular Devices Spectramax Paradigm.Percent growth inhibition was calculated using equation (1). The potency of compounds was determined using the non-linear dose response algorithm (four-parameter logistic fit) with GraphPad Prism 5 software. […]
Compound 7e was diluted to a concentration of 25 µM in DMSO. […] The resulting luminescence was quantitated using a Molecular Devices Spectramax Paradigm. […]

[5] = A549, 24 h, read-out: IC50 for reductions in the total cell number
[6] = A549, 48 h, read-out: IC50 for reductions in the total cell number

| Compound | Change in p-Tyr levels [1] | IC50 ([1]; Homo sapiens, A549, 10 min) [µM] | Mean tumor selectivity [2] | Growth inhibition in both normal and tumor cell lines ([2]; up to 25 μM) [%] | Cell cycle effects (A549 [3]) | IC50 (A549 [3]; A549, 24 h, read-out: IC50, % G1-Phase cells) [µM] | IC50 (A549 [3]; [5]) [µM] | IC50 (A549 [3]; A549, 48 h, read-out: IC50, % G1-Phase cells) [µM] | IC50 (A549 [3]; [6]) [µM] | IC50 (A549 [4]; 72 h) [µM] | IC50 (A549 [4]; Homo sapiens, A549, 72 h) [µM] | IC50 [1] [µM] |
| --- | --- | --- | --- | --- | --- | --- | --- | --- | --- | --- | --- | --- |
| O=C1Nc2ccc(Br)cc2C1=NN=C1C(=O)N(Cc2ccccc2)c2ccccc21 [Compound 7e, 1-Benzyl-3-((5-bromo-2-oxoindolin-3-ylidene)hydrazono)indolin-2-one] | nearly two-fold | 3.8 | 1.7 | > 50 | decreased the percentage of cells in the G1 phase of the cell cycle with a corresponding increase in the S-phase; also recorded: decrease in the percentage of cells in the G1 phase of the cell cycle with a corresponding increase in the S-phase; also recorded: G1 decreased, S-phase increased | 6.26 | 2.67 | 5.16 | 2.36 | 1.6 | 1.56 | – |
| CCN(CC)CCNC(=O)c1c(C)[nH]c(/C=C2\C(=O)Nc3ccc(F)cc32)c1C [Sunitinib, sunitinib, reference compound] | modest dose-dependent decrease | 0.9 | 1.4 | – | G1 decreased and G2/M-phases increased | – | 12.5 | – | 3.48 | 3.1 | 3.06 | 0.91 |
